Experimental data reported in patent publication US20250163048A1 (Tango Therapeutics, Inc., priority 2022, published 2025).
Where two headings read alike, the source gives them in different places.

What was measured:
MTAP-deleted cell line = experiment: viability assay for the MTAP-deleted cell line; format: cell-based; settings: Homo sapiens, HAP1, viability assay
[1] = test system: HAP1 MTAP-deleted cell line; experiment: SDMA in-cell western assay, HAP1 MTAP-deleted; settings: for IC50 / IC90: Homo sapiens; for Hap1 MTAP intact/deleted ratio: IC50 ratio between HAP1 MTAP-intact and HAP1 MTAP-deleted cell line
[2] = test system: HAP1 MTAP-intact cell line; experiment: SDMA in-cell western assay, HAP1 MTAP-intact; settings: Homo sapiens
[3] = HAP1, read-out: Hap1 MTAP deleted IC50, SDMA in-cell western assay, HAP1 MTAP-deleted cell line
[4] = HAP1, read-out: Hap1 MTAP deleted IC90, SDMA in-cell western assay, HAP1 MTAP-deleted cell line
[5] = HAP1, read-out: Hap1 MTAP intact IC50, SDMA in-cell western assay, HAP1 MTAP-intact cell line
[6] = HAP1, read-out: Hap1 MTAP deleted IC50, SDMA in-cell western, HAP1 MTAP-deleted cell line
[7] = HAP1, read-out: Hap1 MTAP deleted IC90, SDMA in-cell western, HAP1 MTAP-deleted cell line
[8] = HAP1, read-out: Hap1 MTAP intact IC50, SDMA in-cell western, HAP1 MTAP-intact cell line

SMILES | IC50 [1, 3] | IC90 [1, 4] | IC50 [2, 5] | IC50 [1, 6] | IC90 [1, 7] | IC50 [2, 8] | IC50 (MTAP-deleted cell line) | Hap1 MTAP intact/deleted ratio ([1]; SDMA in-cell western assay) | Hap1 MTAP intact/deleted ratio ([1]; SDMA in-cell western)
Nc1ncc(NC(=O)C(=O)N2CCCCC2c2cccc(N3CCCC3)c2)c2[nH]ncc12 (single isomer, unassigned) [Compound 213] | 0.005 to 0.05 µM | > 0.125 µM | > 0.05 µM |  |  |  | 0.1 to 1 µM | A (“A” indicates an IC50 ratio greater than or equal to 30 fold) | 
C[C@H]1CC[C@H](c2ccc(OC3CCN(C)CC3)cc2)N(C(=O)C(=O)Nc2cnc(N)c3cn[nH]c23)C1 [Compound 175, N-(4-amino-1H-pyrazolo[4,3-c]pyridin-7-yl)-2-((2R,5S)-5-methyl-2-(4-((1-methylpiperidin-4-yl)oxy)phenyl)piperidin-1-yl)-2-oxoacetamide] |  |  |  | 0.005 to 0.05 µM | < 0.075 µM | > 0.05 µM | < 0.1 µM |  | B (“B” indicates an IC50 ratio greater than or equal to 15 fold but lower than 30 fold)
C[C@H]1CC[C@H](c2ccc3scnc3c2)N(C(=O)C(=O)Nc2cncc3c(N)n[nH]c23)C1 (racemic) [Compound 139, N-(3-amino-1H-pyrazolo[4,3-c]pyridin-7-yl)-2-oxo-2-[rac-(2R,5S)-2-(1,3-benzothiazol-5-yl)-5-methyl-1-piperidyl]acetamide] |  |  |  | 0.005 to 0.05 µM | > 0.125 µM | > 0.05 µM | 0.1 to 1 µM |  | A (“A” indicates an IC50 ratio greater than or equal to 30 fold)
C[C@H]1CC[C@H](c2cccc3c2CCO3)N(C(=O)C(=O)Nc2cnc(N)c3cn[nH]c23)C1 (racemic) [Compound 282, N-(4-Amino-1H-pyrazolo[4,3-c]pyridin-7-yl)-2-oxo-2-[rac-(2R,5S)-2-(2,3-dihydrobenzofuran-4-yl)-5-methyl-1-piperidyl]acetamide] | < 0.005 µM | < 0.075 µM | 0.005 to 0.05 µM |  |  |  | < 0.1 µM | A (“A” indicates an IC50 ratio greater than or equal to 30 fold) | 
C[C@H]1CC[C@H](c2ccc3cc(Cl)cnc3c2)N(C(=O)C(=O)Nc2cnc(N)c3cn[nH]c23)C1 (racemic) [Compound 264, N-(4-Amino-1H-pyrazolo[4,3-c]pyridin-7-yl)-2-oxo-2-[rac-(2R,5S)-2-(3-chloro-7-quinolyl)-5-methyl-1-piperidyl]acetamide] | < 0.005 µM | < 0.075 µM | 0.005 to 0.05 µM |  |  |  | < 0.1 µM | B (“B” indicates an IC50 ratio greater than or equal to 15 fold but lower than 30 fold) | 
C[C@H]1CC[C@H](c2ccc3sc([C@H]4CCN(C)C4)nc3c2)N(C(=O)C(=O)Nc2cncc3cn[nH]c23)C1 (single isomer, unassigned) [Compound 30] |  |  |  | < 0.005 µM | < 0.075 µM | 0.005 to 0.05 µM | < 0.1 µM |  | B (“B” indicates an IC50 ratio greater than or equal to 15 fold but lower than 30 fold)

Second part, led by results:

IC50 [1, 3] | IC90 [1, 4] | IC50 [2, 5] | IC50 [1, 6] | IC90 [1, 7] | IC50 [2, 8] | SMILES | IC50 (MTAP-deleted cell line) | Hap1 MTAP intact/deleted ratio ([1]; SDMA in-cell western assay) | Hap1 MTAP intact/deleted ratio ([1]; SDMA in-cell western)
 |  |  | < 0.005 µM | < 0.075 µM | 0.005 to 0.05 µM | C[C@H]1CC[C@H](c2ccc3cn(C4CCN(C)CC4)nc3c2)N(C(=O)C(=O)Nc2cncc3cn[nH]c23)C1 [Compound 90, 2-oxo-N-(1H-pyrazolo[4,3-c]pyridin-7-yl)-2-[(2R,5S)-5-methyl-2-[2-(1-methyl-4-piperidyl)indazol-6-yl]-1-piperidyl]acetamide] | < 0.1 µM |  | B (“B” indicates an IC50 ratio greater than or equal to 15 fold but lower than 30 fold)
 |  |  | < 0.005 µM | < 0.075 µM | > 0.05 µM | C[C@H]1CC[C@H](c2ccc3nn(C)cc3c2)N(C(=O)C(=O)Nc2cnc(N)c3cn[nH]c23)C1 [Compound 124, N-(4-amino-1H-pyrazolo[4,3-c]pyridin-7-yl)-2-oxo-2-[(2R,5S)-5-methyl-2-(2-methylindazol-5-yl)-1-piperidyl]acetamide] | < 0.1 µM |  | B (“B” indicates an IC50 ratio greater than or equal to 15 fold but lower than 30 fold)
 |  |  | < 0.005 µM | < 0.075 µM | 0.005 to 0.05 µM | C[C@H]1CC[C@H](c2ccc3sc(C4CC5(C4)CN(C)C5)nc3c2)N(C(=O)C(=O)Nc2cncc3cn[nH]c23)C1 [Compound 93, 2-((2R,5S)-5-methyl-2-(2-(2-methyl-2-azaspiro[3.3]heptan-6-yl)benzo[d]thiazol-5-yl)piperidin-1-yl)-2-oxo-N-(1H-pyrazolo[4,3-c]pyridin-7-yl)acetamide] | < 0.1 µM |  | C (“C” indicates an IC50 ratio of less than 15 fold)
 |  |  | < 0.005 µM | < 0.075 µM | > 0.05 µM | C[C@H]1CC[C@H](c2ccc3sc(C4=CCN(C)CC4)nc3c2)N(C(=O)C(=O)Nc2ccn3ccnc3c2)C1 [Compound 157, N-(imidazo[1,2-a]pyridin-7-yl)-2-((2R,5S)-5-methyl-2-(2-(1-methyl-1,2,3,6-tetrahydropyridin-4-yl)benzo[d]thiazol-5-yl)piperidin-1-yl)-2-oxoacetamide] | < 0.1 µM |  | A (“A” indicates an IC50 ratio greater than or equal to 30 fold)
 |  |  | < 0.005 µM | < 0.075 µM | 0.005 to 0.05 µM | Cc1nc2cc([C@H]3CC[C@H](C)CN3C(=O)C(=O)Nc3cnc(N)c4cn[nH]c34)ccc2s1 [Compound 181, N-(4-amino-1H-pyrazolo[4,3-c]pyridin-7-yl)-2-((2R,5S)-5-methyl-2-(2-methylbenzo[d]thiazol-5-yl)piperidin-1-yl)-2-oxoacetamide] | < 0.1 µM |  | C (“C” indicates an IC50 ratio of less than 15 fold)
 |  |  | < 0.005 µM | < 0.075 µM | > 0.05 µM | C[C@H]1CC[C@H](c2ccc(F)c(F)c2)N(C(=O)C(=O)Nc2cnc(N)c3cn[nH]c23)C1 [Compound 151, N-(4-amino-1H-pyrazolo[4,3-c]pyridin-7-yl)-2-((2R,5S)-2-(3,4-difluorophenyl)-5-methylpiperidin-1-yl)-2-oxoacetamide] | < 0.1 µM |  | A (“A” indicates an IC50 ratio greater than or equal to 30 fold)
 |  |  | < 0.005 µM | < 0.075 µM | > 0.05 µM | CC(CN1CCCC1)c1nc2cc([C@H]3CC[C@H](C)CN3C(=O)C(=O)Nc3cncc4cn[nH]c34)ccc2s1 (stereo partly drawn) [Compound 100, 2-((2R,5S)-5-methyl-2-(2-(1-(pyrrolidin-1-yl)propan-2-yl)benzo[d]thiazol-5-yl)piperidin-1-yl)-2-oxo-N-(1H-pyrazolo[4,3-c]pyridin-7-yl)acetamide] | < 0.1 µM |  | A (“A” indicates an IC50 ratio greater than or equal to 30 fold)
 |  |  | < 0.005 µM | < 0.075 µM | > 0.05 µM | C[C@H]1CC[C@H](c2ccc3sc(C4CC(C)(C)N(C)C(C)(C)C4)nc3c2)N(C(=O)C(=O)Nc2cncc3c(N)nccc23)C1 [Compound 46, N-(8-amino-2,7-naphthyridin-4-yl)-2-((2R,5S)-5-methyl-2-(2-(1,2,2,6,6-pentamethylpiperidin-4-yl)benzo[d]thiazol-5-yl)piperidin-1-yl)-2-oxoacetamide] | < 0.1 µM |  | A (“A” indicates an IC50 ratio greater than or equal to 30 fold)
